Assay results published in patent US6323001A, “Increasing the trehalose content of organisms by transforming them with combinations of the structural genes for trehalose synthase” (BTG International Ltd., priority 1994, dated 2001).
Where two headings read alike, the source gives them in different places.

What was measured:
[1] = target: T1, Tre6P synthase activity of intact trehalose synthase (Saccharomyces cerevisiae, UniProt Q00764); experiment: Tre6P synthase assay of intact trehalose synthase; assay type: biochemical, baker's yeast; conditions: for EC50: read-out: K1/2 of activation by F6P; for Tre6P synthase activity, Intact Enzyme: 10 mM G6P, 5 mM UDPG, 5 mM F6P, without phosphate = 100%
T1 construct: Intact trehalose synthase was purified from commercial baker's yeast; made in house; host or cells: commercial baker's yeast (native enzyme purified, not recombinant)
T1 sequence (P31688 whole entry): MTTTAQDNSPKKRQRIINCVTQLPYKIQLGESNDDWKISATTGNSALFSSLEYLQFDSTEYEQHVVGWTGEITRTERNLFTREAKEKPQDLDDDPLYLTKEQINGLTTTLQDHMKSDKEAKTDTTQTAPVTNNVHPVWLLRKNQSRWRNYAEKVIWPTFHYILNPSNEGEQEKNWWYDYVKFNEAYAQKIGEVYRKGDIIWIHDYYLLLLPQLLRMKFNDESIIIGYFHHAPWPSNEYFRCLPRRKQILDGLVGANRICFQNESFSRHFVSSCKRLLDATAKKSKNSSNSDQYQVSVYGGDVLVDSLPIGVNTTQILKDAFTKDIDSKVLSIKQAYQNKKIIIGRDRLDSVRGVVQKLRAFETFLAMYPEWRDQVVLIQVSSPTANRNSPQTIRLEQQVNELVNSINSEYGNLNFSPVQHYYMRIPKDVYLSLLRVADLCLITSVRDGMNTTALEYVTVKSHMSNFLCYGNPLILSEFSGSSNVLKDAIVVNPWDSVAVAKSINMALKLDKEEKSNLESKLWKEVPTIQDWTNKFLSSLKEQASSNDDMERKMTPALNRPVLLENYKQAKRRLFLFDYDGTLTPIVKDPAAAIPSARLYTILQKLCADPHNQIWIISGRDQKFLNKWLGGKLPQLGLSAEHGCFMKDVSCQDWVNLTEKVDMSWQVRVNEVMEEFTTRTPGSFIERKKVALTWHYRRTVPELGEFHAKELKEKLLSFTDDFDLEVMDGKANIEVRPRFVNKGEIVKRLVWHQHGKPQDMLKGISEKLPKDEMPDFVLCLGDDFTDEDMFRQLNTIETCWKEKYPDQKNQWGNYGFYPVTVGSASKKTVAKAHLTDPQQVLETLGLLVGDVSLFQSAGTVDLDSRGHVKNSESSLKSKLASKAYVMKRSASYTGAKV
T1 sequence (P38427 whole entry, further chain): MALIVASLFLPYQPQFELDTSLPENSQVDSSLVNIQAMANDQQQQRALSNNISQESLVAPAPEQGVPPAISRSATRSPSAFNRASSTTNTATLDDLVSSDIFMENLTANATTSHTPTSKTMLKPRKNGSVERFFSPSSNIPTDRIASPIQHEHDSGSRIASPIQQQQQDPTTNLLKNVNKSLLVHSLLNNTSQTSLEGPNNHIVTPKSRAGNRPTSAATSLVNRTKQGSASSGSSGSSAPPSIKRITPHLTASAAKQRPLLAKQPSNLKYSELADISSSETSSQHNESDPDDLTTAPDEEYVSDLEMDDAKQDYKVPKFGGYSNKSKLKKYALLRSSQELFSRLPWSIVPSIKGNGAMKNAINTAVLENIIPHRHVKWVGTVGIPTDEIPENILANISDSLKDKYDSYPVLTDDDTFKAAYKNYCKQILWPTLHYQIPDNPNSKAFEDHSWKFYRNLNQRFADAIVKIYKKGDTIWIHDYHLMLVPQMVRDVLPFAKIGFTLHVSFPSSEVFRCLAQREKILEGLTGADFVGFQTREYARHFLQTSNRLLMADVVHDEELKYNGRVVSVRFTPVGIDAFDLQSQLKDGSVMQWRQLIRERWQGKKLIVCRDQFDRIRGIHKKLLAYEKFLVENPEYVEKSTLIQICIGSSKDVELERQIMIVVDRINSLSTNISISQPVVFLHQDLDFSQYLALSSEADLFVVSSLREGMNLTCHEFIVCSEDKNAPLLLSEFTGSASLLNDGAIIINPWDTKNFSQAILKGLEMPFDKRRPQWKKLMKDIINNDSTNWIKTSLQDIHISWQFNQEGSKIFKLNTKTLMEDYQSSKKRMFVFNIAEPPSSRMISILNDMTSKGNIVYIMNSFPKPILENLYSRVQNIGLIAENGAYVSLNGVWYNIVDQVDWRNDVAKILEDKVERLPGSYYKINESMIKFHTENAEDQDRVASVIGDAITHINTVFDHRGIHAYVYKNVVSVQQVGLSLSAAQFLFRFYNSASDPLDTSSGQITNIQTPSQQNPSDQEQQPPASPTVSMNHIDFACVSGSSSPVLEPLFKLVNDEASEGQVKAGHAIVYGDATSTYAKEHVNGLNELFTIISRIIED
T1 sequence (Q00764 whole entry): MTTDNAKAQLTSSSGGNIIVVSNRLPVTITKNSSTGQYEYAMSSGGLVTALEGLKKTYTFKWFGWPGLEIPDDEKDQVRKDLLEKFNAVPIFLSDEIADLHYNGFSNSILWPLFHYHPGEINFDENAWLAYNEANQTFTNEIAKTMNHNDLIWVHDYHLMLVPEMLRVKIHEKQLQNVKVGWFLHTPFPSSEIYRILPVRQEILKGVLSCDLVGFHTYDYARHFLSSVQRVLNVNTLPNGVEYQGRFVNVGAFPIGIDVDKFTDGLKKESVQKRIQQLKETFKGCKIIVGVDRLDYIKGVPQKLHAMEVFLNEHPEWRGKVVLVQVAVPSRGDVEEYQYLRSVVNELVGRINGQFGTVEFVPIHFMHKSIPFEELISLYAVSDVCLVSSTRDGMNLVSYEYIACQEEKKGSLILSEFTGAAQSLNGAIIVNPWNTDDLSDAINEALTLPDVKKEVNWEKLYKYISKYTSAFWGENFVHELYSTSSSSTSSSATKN
Procedure: (§1) With microbial materials, Tre6Pase and Tre6P synthase standard assays and other kinetic measurements were made as described by Londesborough & Vuorio [(1991) loc. cit.] except that the standard Tre6P synthase assay mixture contained 5 mM F6P unless stated otherwise.
Removal of the N-terminal 325 or so amino acids from the 123 kDa long chain of intact trehalose synthase by treatment with trypsin in vitro produces an enzyme with catalytic properties like those of the truncated enzyme purified by Londesborough & Vuorio [(1991) loc. cit.]. In one experiment intact trehalose synthase (0.28 Tre6P synthase units, ≈9.4 μg) was incubated with or without 0.5 μg of trypsin at 30° C. in 250 μl of 13 mM HEPES pH 7.0 containing 1 mM MgCl2, 0.5 mM EDTA, 0.5 mM dithiothreitol, 0.2 M NaCl and 0.5 mM benzamidine. Its Tre6P synthase activity was determined at intervals using standard assay mixtures (containing 5 mM F6P) containing no or 4 mM K phosphate pH 6.8, and samples were prepared for SDS-PAGE analysis immediately before and 48 min after addition of the trypsin.
(§2) Truncated trehalose synthase was prepared as described by Londesborough & Vuorio [(1991) loc. cit.] and contained the 57 kDa short chain and 86 and 93 kDa fragments of the long chain. Intact trehalose synthase was prepared as in Example 1. Kinetic assays were done at 30° C. as described in General Methods and Materials.

[2] = target: Tre6Pase activity of truncated trehalose synthase (Saccharomyces cerevisiae, UniProt P31688); experiment: Tre6Pase assay of truncated trehalose synthase; assay type: biochemical, baker's yeast
Tre6Pase activity of truncated trehalose synthase, sequence (P31688 whole entry, the tested form may be a part): as the sequence (P31688 whole entry) above
Tre6Pase activity of truncated trehalose synthase, sequence (Q00764 whole entry, further chain, the tested form may be a part): as the sequence (Q00764 whole entry) above
Tre6Pase activity of truncated trehalose synthase, sequence (P38427 336-1098, further chain): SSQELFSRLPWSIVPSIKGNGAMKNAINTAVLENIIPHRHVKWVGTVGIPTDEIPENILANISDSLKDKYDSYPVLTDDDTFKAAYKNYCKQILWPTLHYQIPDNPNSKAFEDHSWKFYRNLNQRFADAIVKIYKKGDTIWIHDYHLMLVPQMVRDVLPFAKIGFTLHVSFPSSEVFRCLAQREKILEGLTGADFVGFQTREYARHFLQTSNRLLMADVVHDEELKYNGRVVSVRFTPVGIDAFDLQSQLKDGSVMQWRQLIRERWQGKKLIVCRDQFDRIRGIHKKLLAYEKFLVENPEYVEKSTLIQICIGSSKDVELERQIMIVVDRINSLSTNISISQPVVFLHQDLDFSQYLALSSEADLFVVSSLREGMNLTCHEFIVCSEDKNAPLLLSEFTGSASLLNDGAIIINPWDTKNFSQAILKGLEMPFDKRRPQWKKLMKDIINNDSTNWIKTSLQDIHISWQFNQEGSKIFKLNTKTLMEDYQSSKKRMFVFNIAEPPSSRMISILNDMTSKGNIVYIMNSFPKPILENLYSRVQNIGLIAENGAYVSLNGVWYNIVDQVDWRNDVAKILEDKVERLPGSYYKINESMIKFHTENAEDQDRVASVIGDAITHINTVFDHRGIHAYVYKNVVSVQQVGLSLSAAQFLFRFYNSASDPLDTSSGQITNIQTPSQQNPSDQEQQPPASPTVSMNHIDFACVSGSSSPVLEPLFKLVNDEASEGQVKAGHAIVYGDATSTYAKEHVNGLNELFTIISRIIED
Procedure: as §1
Truncated trehalose synthase containing the short (57 kDa) chain and the 86 and 93 kDa long chain fragments was prepared according to the method of Londesborough & Vuorio (1991) loc. cit.] for proteolytically activated TPS/P complex. Tre6P synthase and Tre6Pase activities were assayed as described by Londesborough & Vuorio [(1991) loc. cit.]. [N-ethyl-1-^14C]-maleimide (ethyl-labelled NEM; 40 mCi/mmol) was NEC-454 from New England Nuclear. N-ethyl-[2,3-^14 C]-maleimide (ring-labelled NEM; 6 mCi/mmol) was CFA 293 from Amersham International. Both were obtained as solutions in n-pentane and the manufacturer's stated specific activities were assumed to be correct. Unlabelled N-ethyl-maleimide (NEM) was E-3876 from Sigma. It was dissolved in 25 mM HEPES pH 7.0 immediately before use and standardized by absorption measurements at 305 nm, assuming an E^mM of 0.62.
In one experiment, 2.0 μl of 2.4 mM ethyl-labelled NEM was mixed with 150 μl of gel-filtered enzyme and incubated at 23° C. Samples (10 μl) taken at various times up to 190 min were mixed with 60 μl of Laemmli sample buffer (the mercapto-ethanol in this buffer should destroy residual NEM), boiled for 5 min and subjected to SDS-PAGE. At closely similar times (and also at 23 h) other samples (10 μl) were mixed with 100 μl (for Tre6P synthase) or 700 μl (for Tre6Pase) of 5 mg BSA/ml 25 mM HEPES pH 7.0 containing 2 mM MgCl2, 1 mM EDTA, 0.2 M NaCl and 1 mM dithiothreitol (the dithiothreitol should destroy residual NEM) and assayed for Tre6P synthase and Tre6Pase.
as §2

Row | Compound | EC50 ([1]; 1.3 mM phosphate) [µM] | EC50 ([1]; no added phosphate) [µM] | inhibition at 5000 µM ([2]; read-out: inhibition of Tre6Pase activity, 5 mM F6P, saturating phosphate concentrations, truncated enzyme) [%] | inhibition at 5000 µM ([2]; read-out: inhibition of Tre6Pase activity, 5 mM F6P, sub-optimal phosphate concentrations, truncated enzyme) [%] | Tre6P synthase activity, Intact Enzyme ([1]; 1.3 mM added K phosphate pH 6.8) [%] | Tre6P synthase activity, Intact Enzyme ([1]; 4.0 mM added K phosphate pH 6.8) [%] | EC50 ([2]; initial rates, truncated enzyme, read-out: K1/2 of activation of Tre6Pase by phosphate) [µM]
1 | O=C(CO)[C@@H](O)[C@H](O)[C@H](O)COP(=O)(O)O [Transformant F6P, Fructose 6-phosphate] | 1400 | 60 | 10 to 15 | 20 to 30 | – | – | –
2 | O=P(O)(O)O [phosphate, K phosphate] | – | – | – | – | 69 | 14 | 3000
